From patent US11369601B2, “Prophylactic or therapeutic agent for pulmonary hypertension comprising mebendazole and/or itraconazole or salt thereof” (TOHOKU UNIVERSITY, priority 2017, dated 2022)
“Also recorded” adds a separate entry of the source.

Key:
[1] = system: Hypoxia-induced pulmonary hypertension mice; assay: Hypoxia-induced pulmonary hypertension mice, right heart catheterization; type: in vivo, mice (C57/BL6); settings: hypoxia (10% oxygen) 3 weeks, intravenous once daily, itraconazole 20 mg/kg/day, mebendazole 25 mg/kg/day, vs vehicle; for right ventricular systolic pressure: FIG. 1
Description: (§1) Hypoxia-induced pulmonary hypertension mice serving as a model generally used in an animal experiment for pulmonary hypertension were intravenously administered itraconazole or mebendazole. Specifically, first, 8-week-old male wild-type mice (C57/BL6 mice, n=10 per group) were housed in a transparent acrylic box with an oxygen concentration controlled to 10% using a hypoxia generator (Teijin Limited, Japan) under a 12 h light and dark cycle. The mice were stimulated by hypoxia for 3 weeks, and in this period, were intravenously injected with itraconazole (the following solution was used as itraconazole: 100 mg of itraconazole was dissolved in 6.7 ml of dimethyl sulfoxide, and the solution of itraconazole in dimethyl sulfoxide was mixed with ultrapure water (mQ or ultrapure water) to prepare a 100 ml solution) once daily at a dose of 20 mg/kg/day. As a Vihicle group, the following test was performed: the mice were stimulated by hypoxia in the same manner as described above except that the mice were intravenously injected with a 1:15 (V/V) mixed solution of dimethyl sulfoxide and ultrapure water in place of itraconazole as a diet. In addition, a mebendazole administration test for hypoxia-induced pulmonary hypertension mice was performed in the same manner as described above except that the mice were intravenously injected with mebendazole in place of itraconazole (the following solution was used as mebendazole: 100 mg of mebendazole was dissolved in 6.7 ml of dimethyl sulfoxide, and the solution of mebendazole in dimethyl sulfoxide was mixed with ultrapure water (mQ or ultrapure water) to prepare a 100 ml solution) at a dose of 25 mg/kg/day.
After the hypoxic stimulation for 3 weeks, a 1.2-Fr catheter (SciSense Inc., Ontario, Canada) was inserted in the jugular vein of the mice under isoflurane anesthesia and advanced into the right ventricle to measure a right ventricular systolic pressure. The average body weights of the Vehicle group, the itraconazole administration group, and the mebendazole administration group before the test were 16.3±0.2 g, 16.8±0.3 g, and 16.8.±0.3 g, respectively. In addition, the average body weights of the Vehicle group, the itraconazole administration group, and the mebendazole administration group after the test were 18.±0.2 g, 17.2±0.2 g, and 17.5±0.2 g, respectively.

[2] = Body weight of hypoxia-induced pulmonary hypertension mice; type: in vivo, mice (C57/BL6); settings: for average body weight after the test: after 3 weeks hypoxia and once daily intravenous dosing, itraconazole 20 mg/kg/day, mebendazole 25 mg/kg/day
Description: as §1
After the hypoxic stimulation for 3 weeks, a 1.2-Fr catheter (SciSense Inc., Ontario, Canada) was inserted in the jugular vein of the mice under isoflurane anesthesia and advanced into the right ventricle to measure a right ventricular systolic pressure. […]

[3] = system: pulmonary artery smooth muscle cells; assay: Excessive proliferation of pulmonary artery smooth muscle cells (compound investigation); type: cell-based
Excerpt: Under such circumstances, the inventors of the present invention have investigated thousands of kinds of compounds. […] The present invention is based on such novel findings.

[4] = system: Sugen/hypoxia-induced hypertension rat model; assay: Sugen/hypoxia-induced pulmonary hypertension rat model, RVSP and RVH; type: in vivo, rats (Sprague-Dawley)
Description: In this test, a vehicle treatment group was used as a control. A Sugen/hypoxia-induced hypertension rat model was used to assess pulmonary hypertension (PH) (Non-patent Literature 2). In order to assess the development of pulmonary hypertension, right ventricular systolic pressure (RVSP) and right ventricular hypertrophy (RVH) were measured (Non-patent Literatures 2 to 4).
For right heart catheterization, a 1.4-F (for rats) pressure measurement catheter (Transonic Scisense) was inserted into the right jugular vein and advanced into the right ventricle to measure RVSP (Non-patent Literature 5).
In the Sugen/hypoxia model, rats (Sprague-Dawley, male, 6-week-old) were injected subcutaneously with a VEGF-receptor inhibitor SU5416 (Sigma-Aldrich, St Louis, Mo.) (20 mg per kg body weight) under isoflurane anesthesia and were then exposed to hypoxia (10% O2) for 3 weeks. After the indicated period of treatment below, the rats were anesthetized with isoflurane (1.5%) to perform right heart catheterization. All data were analyzed using the PowerLab data acquisition system (AD Instruments, Bella Vista, Australia) and were averaged over 50 sequential beats (Non-patent Literatures 2 to 5).
Hearts were dissected and the right ventricular free wall (RV) was removed from the left ventricle (LV) and septum. The ratio of right ventricular free wall (RV) weight to left ventricle plus septum (LV+Septum) weight [RV/(LV+S)] was measured to assess the extent of RVH (Non-patent Literature 2).
Rats (Sprague-Dawley, male, 6-week-old) were injected subcutaneously with a VEGF-receptor inhibitor SU5416 (Sigma-Aldrich) (20 mg per kg body weight) under isoflurane anesthesia and were then exposed to hypoxia (10% 02) for 3 weeks (hypoxia+SU5416). On day 21, the rats were randomized to be intravenously injected with mebendazole (25 mg per kg body weight) or vehicle (the rats were administered dimethyl sulfoxide in place of mebendazole solution) once daily under normoxia (21% O2) for 2 weeks. The vehicle administration group is expressed as vehicle control. […] Thus, the development of PH was assessed.

[5] = Body weight of rats with Sugen/hypoxia-induced PH; type: in vivo, rats (Sprague-Dawley); settings: mebendazole 25 mg per kg intravenously once daily for 14 days, vs vehicle control
Description: Rats (Sprague-Dawley, male, 6-week-old) were injected subcutaneously with a VEGF-receptor inhibitor SU5416 (Sigma-Aldrich) (20 mg per kg body weight) under isoflurane anesthesia and were then exposed to hypoxia (10% 02) for 3 weeks (hypoxia+SU5416). On day 21, the rats were randomized to be intravenously injected with mebendazole (25 mg per kg body weight) or vehicle (the rats were administered dimethyl sulfoxide in place of mebendazole solution) once daily under normoxia (21% O2) for 2 weeks. The vehicle administration group is expressed as vehicle control. […] On day 35, the rats were anesthetized with isoflurane (1.0%) to measure RVSP and RVH. Thus, the development of PH was assessed.

[6] = hypoxia+SU5416 3 weeks, then mebendazole 25 mg per kg intravenously once daily for 2 weeks under normoxia, day 35, vs vehicle control, FIG. 2

Structure (SMILES)	right ventricular hypertrophy [1]	right ventricular systolic pressure [1]	average body weight after the test [2]	average body weight before the test ([2]; before the test (baseline), mice n=10 per group)	excessive proliferation of pulmonary artery smooth muscle cells [3]	PH in the animal model in vivo ([4]; Sugen/hypoxia rats, mebendazole 25 mg per kg intravenously once daily for 14 days)	right ventricular hypertrophy (RVH), RV/(LV+S) [4, 6]	right ventricular systolic pressure (RVSP) [4, 6]	body weight [5]
CCC(C)n1ncn(-c2ccc(N3CCN(c4ccc(OC[C@H]5CO[C@](Cn6cncn6)(c6ccc(Cl)cc6Cl)O5)cc4)CC3)cc2)c1=O (stereo partly shown) [itraconazole]	Significant reductions	Significant reductions	17.2 ± 0.2 g	16.8 ± 0.3 g	suppresses excessive proliferation				
COC(=O)Nc1nc2ccc(C(=O)c3ccccc3)cc2[nH]1 [mebendazole, methyl (5-benzoyl-1H-benzo[d]imidazol-2-yl)carbamate]	Significant reductions	Significant reductions	17.5 ± 0.2 g		suppresses excessive proliferation	ameliorated	reduced	reduced	no significant difference; also recorded: no influence
